From US20230313217A1, “CHLOROPLAST TARGETING PEPTIDES AND CONJUGATES AND COMPOSITIONS THEREOF” (The Regents of the University of California, priority 2021, published 2023)

Experiments:
[1] = system: chloroplasts in leaf mesophyll cells; test: Chemical cargo (FDA) delivery to chloroplasts, confocal colocalization; format: in vivo, Arabidopsis thaliana; details: FDA alone
Description: Chemical Cargo and Plasmid DNA and Delivery to Chloroplasts Mediated by Targeted Nanomaterials. To assess the delivery of chemical cargoes to chloroplasts mediated by TP-β-CD nanocarriers, we loaded β-cyclodextrins with the fluorescent dye […] (FDA) (FIG. 4A). We imaged the localization of FDA within leaf mesophyll tissues by confocal microscopy and quantified the localization of this fluorescence dye with chloroplasts autofluorescence (FIG. 4B,C). Plant leaves treated with TP-β-CD-FDA or TP-β-CD (Table 1) were analyzed for the fluorescence emission crosstalk with confocal microscopy under laser excitation with a 488 nm laser (FIG. 13A). […] When added together with CDs or β-CDs, the FDA was observed both in the intracellular and extracellular space. […] In contrast, when FDA was delivered by TP-β-CDs, most of the FDA fluorescence signal was detected inside leaf mesophyll cells and highly colocalized with chloroplasts (70.0±9.5%) (FIG. 4B). […] Although targeted TP-β-CDs improved the delivery of FDA to chloroplasts in leaf mesophyll cells, the FDA fluorescence signal was localized throughout the entire leaf mesophyll cells. […] Colocalization rates of FDA fluorescence with chloroplasts were determined using Mander's coefficient analysis (COLOC2, ImageJ). […]
Confocal Fluorescence Microscopy. […]

[2] = ζ potential of carbon nanostructures (Zetasizer); format: physicochemical; details: neutral charge
Protocol: The resulting PEI-SWCNT suspension was characterized by measuring the absorbance spectra on a UV-vis absorbance spectrophotometer (UV-2600, Shimadzu). The quality of the SWCNT suspension was determined by analyzing absorbance peaks at 632 nm. This measurement was performed with triplicates. The concentration of the PEI-SWCNT was determined spectrophotometrically using the absorption value at 632 nm and utilizing the equation (absorbance at 632 nm/extinction coefficient of 0.036)=mg L^−1. The final concentration obtained after purification ranged from 18 to 30 mg/L. The nanoparticle ζ potential was measured using a Zetasizer (Nano ZS, Malvern Instruments) in samples suspended in 10 mM TES buffer pH 7.0, with 0.1 mM NaCl. The hydrodynamic size was measured using Zetasizer (Nano ZS, Malvern Instruments) in samples suspended in a 10 mM TES buffer at pH 7.
Characterization of Nanomaterials. All nanomaterials were characterized by absorbance UV-vis spectroscopy (UV-2600 Shimadzu), hydrodynamic size (Nano S), and ζ potential (Nano ZS). The nanomaterial ζ potential and hydrodynamic diameter were measured in a 10 mM TES buffer (pH 7.0). The ζ potential measurements were performed in 0.1 mM NaCl to improve conductivity and analyzed by the Hückel approximation model.^111 CD fluorescence emission was collected using a fluorescence spectrometer (Horiba PTI QM-400). The stepwise synthesis of TP-β-CDs was analyzed using FTIR (Thermo Nicolet 6700 FTIR).

Row | Molecule | localization of FDA in leaf mesophyll tissue [1] | charge of chloroplast targeting peptide [2] [mV]
1 | O=C(O)c1ccc2c(c1)C1(OC2=O)c2ccc(O)cc2Oc2cc(O)ccc21 [FDA, 6-carboxyfluorescein] | localized near the plasma membrane | 
2 | MASSMLSSATMVGGC [chloroplast targeting peptide for CD] |  | −0.1
